Consider one compound from PMC12260505, “First-in-Human Phase I/IIa Study of the First-in-Class CDK2/4/6 Inhibitor PF-06873600 Alone or with Endocrine Therapy in Patients with Breast Cancer” (Clinical Cancer Research, 2025).

For orientation: Ki means the dissociation constant of the complex between target and ligand, obtained from inhibition or displacement.

The nature of data set [1]: Dose-limiting toxicities in dose escalation (modified toxicity probability interval method). The class given is in vivo, human. The procedure: Part 1 included adult patients with HR^+/HER2^− advanced breast cancer or mBC (third- or fourth-line setting), locally recurrent/advanced or metastatic TNBC, or advanced platinum-resistant epithelial ovarian cancer/fallopian tube cancer/primary peritoneal cancer who received oral PF-06873600 at doses of 1 to 50 mg twice daily or oral PF-06873600 plus ET (letrozole or fulvestrant). Primary endpoints for part 1 dose escalation determined safety and tolerability to define dose-limiting toxicities (DLT), estimate the maximum tolerated dose, and select the recommended dose for expansion (RDE). Safety endpoints included adverse events (AE) characterized by type, frequency, severity [as graded by NCI Common Terminology Criteria for Adverse Events (CTCAE) version 4.03], timing, seriousness, and relationship to study therapy. Laboratory abnormalities were characterized by type, frequency, severity (as graded by NCI CTCAE version 4.03), timing, vital sign abnormalities, and heart rate–corrected QT interval (e.g., QTcF). Secondary endpoints included PK, preliminary antitumor activity as assessed using RECIST version 1.1, time-to-event endpoints including objective response rate (ORR), duration of response (DoR), progression-free survival (PFS), time to progression (TTP), and modulation of tumor CDK biomarkers [phosphorylated Rb (pRb), Ki67]. Exploratory endpoints included molecular profiling of tumor and ctDNA and the relationship to clinical outcome.
In part 1A, dose escalation monotherapy, patients received escalating doses of a single-agent immediate release (IR) formulation of PF-06873600, 1 to 50 mg twice daily orally on a continuous basis, with dose escalation following the modified toxicity probability interval method. Seven dose levels were evaluated: 1, 2, 5, 10, 25, 35, and 50 mg. An alternative intermittent dosing regimen (5 days on/2 days off) was also explored at 35 mg twice daily. Part 1B combination dose-finding involved PF-06873600 IR 25 mg twice daily with ET (letrozole or fulvestrant, each administered per standard of care). Letrozole was administered orally once daily together with PF-06873600. No dose adjustment for letrozole was permitted, but dosing interruptions were allowed. Fulvestrant 500 mg was administered intramuscularly on cycle 1 day 1 and day 15, cycle 2 day 1, and then monthly thereafter (±3 days) to accommodate dosing on day 1 of each cycle. No dose adjustment for fulvestrant was permitted. Part 1C evaluated two modified release (MR) formulations of PF-06873600: one in the single-dose setting and the other in the twice-daily setting. A cycle was defined as 28 days, regardless of missed doses or dose delays.
DLT was the primary endpoint of the study, summarized by dose level using the per-protocol analysis set for patients in the dose escalation portion of the study. Efficacy analysis was summarized by dose cohorts for part 2 of the study. For part 1, no formal efficacy analysis was presented. For part 2, tumor response was presented in the form of patient data listings that included, but were not limited to, tumor type, starting dose, tumor response at each visit, and best overall response. In addition, progression date, death date, date of first response, last tumor assessment date, and date of last contact were listed. ORR, PFS, overall survival, TTP, and DoR were summarized and presented as data permitted. For response-based metrics (best overall response, ORR, and DoR), analyses were presented on the basis of confirmed responses. Analyses of PFS and TTP were defined as the time from the date of the first dose. Summaries of the number and percentage of patients with PFS and TTP and data listings by tumor type and dose were generated based on data availability. The 95% confidence intervals (CI) for medians and quartiles were generated based on the Brookmeyer–Crowley method, whereas CIs for the estimated probability of an event at a particular time point were generated using the Greenwood formula. […]

The subject of the next data set is Ki67. The data set is described as follows: IHC of Ki67 in paired tumor biopsies. Type of data set: in vivo, human. The procedure:
The pharmacodynamic effects of PF-06873600 were assessed by IHC staining of pRb and Ki67 in tumor biopsy samples collected at screening and day 1 of cycle 2 (4 hours after dose). Immunostaining was performed on […] formalin-fixed, paraffin-embedded tissue sections using rabbit monoclonal anti-Rb (Ser807/811) antibody (clone D20B12, Cell Signaling Technology) and rabbit monoclonal anti-Ki67 antibody (Ventana Medical Systems), respectively. pRb and Ki67 expressions were assessed semiquantitatively by a board-certified pathologist. Scoring was performed using the percentage of cells positive for Ki67 or a histo-score (H-score) methodology for pRb based on staining intensity and the percentage of positive cells. Intensity was scored as 0, none; 1, weak; 2, moderate; or 3, strong, and H-scores were calculated as follows: H-score = [fraction of cells with intensity grade 1 (%)] + [fraction of cells with intensity grade 2 (%) × 2] + [fraction of cells with intensity grade 3 (%) × 3].

In the next data set the target is CDK9. The arrangement: method as in PMID 34110834. The conditions noted are these: cited from earlier work.
[2] abbreviates: part 1A 35 mg twice daily, N = 2, DLT-evaluable set.
Where [3] appears, read: part 1A 50 mg twice daily, N = 8, DLT-evaluable set.

On to `C[C@@]1(O)CCC[C@H]1n1c(=O)c(C(F)F)cc2cnc(NC3CCN(S(C)(=O)=O)CC3)nc21` [PF-06873600], for which the “DLTs at the monotherapy RDE” value in data set [1] (25 mg twice daily, single-agent or combination groups) is “No DLTs”. In data set [1] (setting [2]), the “DLT, Cardiac arrest” value was 0 n (%); the “DLT, Colitis” value was 0 n (%); the “DLT, Fatigue” value was 0 n (%); the “DLT, Febrile neutropenia” value is 0 n (%). Moreover, in data set [1] (setting [2]), the “DLT, Multiple organ dysfunction syndrome” value is given as 0 n (%); the “DLT, Neutrophil count decreased” value is on record as 2 (100.0) n (%); the “DLT, Platelet count decreased” value was 1 (50.0) n (%); the “DLT, Thrombocytopenia” value is 0 n (%). Moreover, in data set [1] (setting [2]), the “Patients with any DLTs” value is 2 (100.0) n (%). Also, in data set [1] (setting [3]), the “DLT, Cardiac arrest” value is 1 (12.5) n (%); the “DLT, Colitis” value is listed as 1 (12.5) n (%); the “DLT, Fatigue” value is 1 (12.5) n (%); the “DLT, Febrile neutropenia” value is 3 (37.5) n (%). Besides, in data set [1] (setting [3]), the “DLT, Multiple organ dysfunction syndrome” value is 1 (12.5) n (%); the “DLT, Neutrophil count decreased” value is given as 0 n (%); the “DLT, Platelet count decreased” value is on record as 0 n (%); the “DLT, Thrombocytopenia” value is 1 (12.5) n (%). Also, in data set [1] (setting [3]), the “Patients with any DLTs” value is listed as 4 (50.0) n (%). Besides, the “Patients with DLTs (all treatment-related)” value in data set [1] (part 1A, 42 patients evaluable for DLT) was found to be 14.3%. In addition, in data set [1] (single-agent and combination dosing groups), the “Recommended dose for expansion (RDE)” value came out at 25 mg twice daily. For the same compound, the “Median percentage change in Ki67-positive cells from baseline” value with Ki67 (IR 25 mg twice daily monotherapy, cycle 2 day 1, HR+/HER2− mBC tumor biopsies) is “–11.7%”. The “Median percentage change in Ki67-positive cells from baseline” value in the data set with Ki67 (IR 25 mg twice daily/fulvestrant combination, cycle 2 day 1) is reported as “–35.9%”. Moreover, at CDK9, the Ki is 19.6 nM.
